Experimental data published in patent publication US8450333B2, “Molecules for regulating cell death” (The Regents of The University of California, priority 2003, dated 2013).

Key:
wild type yeast cells = test: Mitochondrial morphology in yeast (secondary screen, mitochondrial targeted GFP); assay type: cell-based, S. cerevisiae
Text: Secondary screens: Compounds identified in the primary growth assay-based screens outlined above are screened secondarily by examining their effects on mitochondrial morphology. We use the steady state structure of mitochondria as an indicator of the relative rates of mitochondrial fission and fusion in cells. […] Mitochondria are visualized using a mitochondrial targeted GFP that is efficiently targeted to both wild type and respiratory deficient mitochondria (Tieu et al., 2000 The Journal of Cell Biology 151, 353-365.).
All compounds identified in the primary growth assay-based screens outlined above were screened secondarily by examining their effects on mitochondrial morphology in yeast. From previous work, we know that the steady state structure of mitochondria is an indicator of the relative rates of mitochondrial fission and fusion in cells (FIG. 7). Specifically, net-like structures indicate a block in fission, and fragmented mitochondrial structures indicate a block in fusion. […] In this secondary assay, small molecules were judged to be a hit if they produced a mutant phenotype in greater than 5% of the cell population.
To determine what structural features are important for the effects of mfisi-1 on mitochondrial fission, we identified structurally related molecules using a chemoinformatics approach. We utilized web-based ChemNavigator to search available public and commercial compound databases for small molecules that uniquely represented key structural features of mfisi-1. We tested a total of 15 small molecules related to mfisi-1 for their effects on mitochondrial morphology in yeast, each at a concentration of 50 μM (Table 3).

recombinant Dnm1 = target: T1, recombinant Dnm1 (Saccharomyces cerevisiae, UniProt P54861); test: Dnm1 GTPase activity, radioactive TLC-based assay; assay type: biochemical, yeast
T1 construct: made in house; host or cells: insect cells (baculovirus expression system)
T1 sequence (P54861 1-757): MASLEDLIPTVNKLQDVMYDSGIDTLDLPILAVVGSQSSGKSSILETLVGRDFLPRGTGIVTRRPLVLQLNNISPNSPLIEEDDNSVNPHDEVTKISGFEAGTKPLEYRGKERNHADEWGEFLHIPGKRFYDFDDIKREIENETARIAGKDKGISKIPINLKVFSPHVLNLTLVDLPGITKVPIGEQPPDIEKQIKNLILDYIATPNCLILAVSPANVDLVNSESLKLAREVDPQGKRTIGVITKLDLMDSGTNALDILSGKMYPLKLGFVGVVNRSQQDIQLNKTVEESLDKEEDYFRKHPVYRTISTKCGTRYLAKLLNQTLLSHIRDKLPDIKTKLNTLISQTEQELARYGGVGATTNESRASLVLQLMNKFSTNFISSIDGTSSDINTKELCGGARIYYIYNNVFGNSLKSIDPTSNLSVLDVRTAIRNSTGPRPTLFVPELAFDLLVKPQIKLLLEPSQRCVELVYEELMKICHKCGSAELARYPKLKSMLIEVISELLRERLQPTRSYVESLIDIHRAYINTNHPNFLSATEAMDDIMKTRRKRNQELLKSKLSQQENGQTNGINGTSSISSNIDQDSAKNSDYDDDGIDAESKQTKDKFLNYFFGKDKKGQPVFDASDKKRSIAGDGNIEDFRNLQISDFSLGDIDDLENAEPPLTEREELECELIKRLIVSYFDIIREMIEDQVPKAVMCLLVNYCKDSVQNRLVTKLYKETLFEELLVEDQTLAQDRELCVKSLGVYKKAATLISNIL
Text: In order to discern a detailed mechanism for mitochondrial fission, we have begun to purify and characterize activities associated with known fission components, with the ultimate goal of reconstituting this event in vitro. Towards this goal, we have successfully expressed and purified active recombinant Dnm1 (the yeast mitochondrial fission DRP) from insect cells, using a baculovirus expression system. Using an established radioactive TLC-based assay for GTPase activity, we characterized the kinetic properties of recombinant Dnm1 under low salt conditions (FIG. 10A). […] The Km for GTP for Dnm1 is near 200 μM, greater than that observed for assembled dynamin (˜10 μM). The significance of this difference as it relates to the function of these DRPs will be interesting to determine.
Determining the mechanism of mfisi-1 inhibition is critical for assessing how DRPs function in mitochondrial fission. We will perform standard steady-state kinetic assays to determine the mechanism of inhibition by mfisi-1 using established GTPase assays in the presence of variable concentrations of substrate (GTP) and mfisi-1. […] Nucleotides are resolved using thin layer chromatography, and quantification of GTP and GDP product is performed using a Phosphorimager. All rates are calculated using time points where product formation is linear over time.

[1] = Structure Function Analysis of A1, A2, and A3, fraction of yeast cells
[2] = fraction of wild type yeast cells

## COc1cc(-n2c(S)nc3ccccc3c2=O)c(Cl)cc1Cl [mfisi-1, 3-(2,4-Dichloro-5-methoxy-phenyl)-2-mercapto-3H-quinazolin-4-one]
Wild type yeast cells
  effect on mitochondrial morphology in yeast cells: caused the formation of mitochondrial net-like structures
Wild type yeast cells; Saccharomyces cerevisiae, read-out: IC50, formation of net-like mitochondria
  IC50: 10 to 20 µM
Wild type yeast cells; [1]
  Fragmented: .05
  Nets: .55
  Reticular: .40
Wild type yeast cells; [2]
  Mitochondrial Morphology after Drug is Added: Fragmented: .05
  Mitochondrial Morphology after Drug is Added: Nets: .55
  Mitochondrial Morphology after Drug is Added: Reticular: .40
Wild type yeast cells; wild type cells, sub-μM concentrations
  time after addition until net-like mitochondria form: ≤ 1 min
Wild type yeast cells; yeast, each at a concentration of 50 μM
  % net-like structures: 60%
Recombinant Dnm1
  IC50: ~10 µM
Recombinant Dnm1; mfisi-1 at its IC50, GTP 10 μM-2 mM
  mode of inhibition versus GTP: NOT a pure competitive inhibitor
